According to US8822462B2, “Subunit selective NMDA receptor potentiators for the treatment of neurological conditions” (Emory University, priority 2009, dated 2014):
Read-outs that look alike come from different tables or passages of the source.

What was measured:
NR1/NR2C = target: T1, NR1/NR2C (Homo sapiens, UniProt Q05586+Q14957); test: Two electrode voltage clamp, Xenopus laevis oocytes expressing NR1/NR2C; format: cell-based; conditions: for IC50: fitted to composite concentration-effect data, read-out: 2C IC50; for Emax: maximal effect of fit, read-out: 2C Max
T1 construct: expressed in transfected cells; host or cells: Xenopus laevis oocytes
Text: Values are mean+SEM (n=14-20). […] C is the closed level; broken line is the open level.
The Hill slope at both receptors for all analogues was greater than 1, consistent with a cooperative effect of binding at two sites.
(§1) In the table above, potency is expressed as fitted EC50 value to average composite concentration-effect data constructed from current responses recorded under two electrode voltage clamp from Xenopus laevis oocytes expressing either NR1/NR2A, B, C, or D, GluR1, or GluR6. No effect means less than 20% change in response amplitude at 30 μM of drug.

NR1/NR2D = NR1/NR2D (Homo sapiens, UniProt O15399+Q05586); test: Two electrode voltage clamp, Xenopus laevis oocytes expressing NR1/NR2D; conditions: for Emax: read-out: 2D Max
NR1/NR2B = target: T2, NR1/NR2B (Homo sapiens, UniProt Q05586+Q13224); test: Two electrode voltage clamp, Xenopus laevis oocytes expressing NR1/NR2B; format: cell-based; conditions: for activity at 100 µM: read-out: 2B percent effect at the maximum tested concentration; for IC50: fitted to composite concentration-effect data, Max 0 = inhibition, read-out: 2B IC50
T2 construct: expressed in transfected cells; host or cells: Xenopus laevis oocytes
Description: as §1

NR1/NR2A = target: T3, NR1/NR2A (Homo sapiens, UniProt Q12879); test: Two electrode voltage clamp, Xenopus laevis oocytes expressing NR1/NR2A; format: cell-based; conditions: read-out: 2A percent effect at the maximum tested concentration
T3 construct: expressed in transfected cells; host or cells: Xenopus laevis oocytes
Description: as §1

[1] = read-out: 2C percent effect at the maximum tested concentration
[2] = read-out: 2D percent effect at the maximum tested concentration, at 100 μM

T2 sequence (Q13224 27-1484, species assumed, other chains not shown): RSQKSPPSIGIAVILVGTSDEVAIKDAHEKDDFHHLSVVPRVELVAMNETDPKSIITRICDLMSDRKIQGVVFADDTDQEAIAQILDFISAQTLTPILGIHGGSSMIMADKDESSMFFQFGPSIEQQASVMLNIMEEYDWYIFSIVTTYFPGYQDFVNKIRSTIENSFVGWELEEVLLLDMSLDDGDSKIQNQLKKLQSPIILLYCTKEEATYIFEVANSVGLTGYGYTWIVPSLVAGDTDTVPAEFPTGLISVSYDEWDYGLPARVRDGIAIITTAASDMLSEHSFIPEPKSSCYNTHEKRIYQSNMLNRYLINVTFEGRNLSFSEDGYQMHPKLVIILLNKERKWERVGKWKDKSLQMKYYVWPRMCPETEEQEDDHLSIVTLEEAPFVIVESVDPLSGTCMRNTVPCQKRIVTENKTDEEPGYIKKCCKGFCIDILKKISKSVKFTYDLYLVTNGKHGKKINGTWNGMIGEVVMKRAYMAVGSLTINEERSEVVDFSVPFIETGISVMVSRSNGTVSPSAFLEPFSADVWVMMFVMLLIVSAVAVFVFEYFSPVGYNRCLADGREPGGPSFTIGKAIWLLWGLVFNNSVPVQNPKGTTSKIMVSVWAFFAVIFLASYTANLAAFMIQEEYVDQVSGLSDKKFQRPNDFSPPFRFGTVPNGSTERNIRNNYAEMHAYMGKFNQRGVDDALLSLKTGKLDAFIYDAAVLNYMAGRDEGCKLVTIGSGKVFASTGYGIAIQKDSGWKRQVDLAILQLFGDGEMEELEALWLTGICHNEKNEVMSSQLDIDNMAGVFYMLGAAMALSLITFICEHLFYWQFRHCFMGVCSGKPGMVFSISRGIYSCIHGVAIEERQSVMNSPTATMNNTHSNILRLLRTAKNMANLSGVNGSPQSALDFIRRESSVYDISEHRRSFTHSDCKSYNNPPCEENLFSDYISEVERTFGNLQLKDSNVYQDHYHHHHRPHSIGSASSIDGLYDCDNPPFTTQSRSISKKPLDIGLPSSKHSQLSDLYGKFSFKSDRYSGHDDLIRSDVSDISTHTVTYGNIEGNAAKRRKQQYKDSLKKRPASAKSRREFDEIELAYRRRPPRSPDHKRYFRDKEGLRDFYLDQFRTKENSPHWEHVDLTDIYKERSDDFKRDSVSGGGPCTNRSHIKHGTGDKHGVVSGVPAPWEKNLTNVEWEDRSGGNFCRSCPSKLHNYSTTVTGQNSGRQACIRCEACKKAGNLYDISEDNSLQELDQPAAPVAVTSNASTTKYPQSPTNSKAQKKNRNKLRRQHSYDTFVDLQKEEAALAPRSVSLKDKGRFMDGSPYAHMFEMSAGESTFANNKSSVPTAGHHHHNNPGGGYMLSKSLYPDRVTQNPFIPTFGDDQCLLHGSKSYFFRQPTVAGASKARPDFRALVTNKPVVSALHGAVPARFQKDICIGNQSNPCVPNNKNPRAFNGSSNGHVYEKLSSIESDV
T3 sequence (Q12879 23-1464, species assumed, other chains not shown): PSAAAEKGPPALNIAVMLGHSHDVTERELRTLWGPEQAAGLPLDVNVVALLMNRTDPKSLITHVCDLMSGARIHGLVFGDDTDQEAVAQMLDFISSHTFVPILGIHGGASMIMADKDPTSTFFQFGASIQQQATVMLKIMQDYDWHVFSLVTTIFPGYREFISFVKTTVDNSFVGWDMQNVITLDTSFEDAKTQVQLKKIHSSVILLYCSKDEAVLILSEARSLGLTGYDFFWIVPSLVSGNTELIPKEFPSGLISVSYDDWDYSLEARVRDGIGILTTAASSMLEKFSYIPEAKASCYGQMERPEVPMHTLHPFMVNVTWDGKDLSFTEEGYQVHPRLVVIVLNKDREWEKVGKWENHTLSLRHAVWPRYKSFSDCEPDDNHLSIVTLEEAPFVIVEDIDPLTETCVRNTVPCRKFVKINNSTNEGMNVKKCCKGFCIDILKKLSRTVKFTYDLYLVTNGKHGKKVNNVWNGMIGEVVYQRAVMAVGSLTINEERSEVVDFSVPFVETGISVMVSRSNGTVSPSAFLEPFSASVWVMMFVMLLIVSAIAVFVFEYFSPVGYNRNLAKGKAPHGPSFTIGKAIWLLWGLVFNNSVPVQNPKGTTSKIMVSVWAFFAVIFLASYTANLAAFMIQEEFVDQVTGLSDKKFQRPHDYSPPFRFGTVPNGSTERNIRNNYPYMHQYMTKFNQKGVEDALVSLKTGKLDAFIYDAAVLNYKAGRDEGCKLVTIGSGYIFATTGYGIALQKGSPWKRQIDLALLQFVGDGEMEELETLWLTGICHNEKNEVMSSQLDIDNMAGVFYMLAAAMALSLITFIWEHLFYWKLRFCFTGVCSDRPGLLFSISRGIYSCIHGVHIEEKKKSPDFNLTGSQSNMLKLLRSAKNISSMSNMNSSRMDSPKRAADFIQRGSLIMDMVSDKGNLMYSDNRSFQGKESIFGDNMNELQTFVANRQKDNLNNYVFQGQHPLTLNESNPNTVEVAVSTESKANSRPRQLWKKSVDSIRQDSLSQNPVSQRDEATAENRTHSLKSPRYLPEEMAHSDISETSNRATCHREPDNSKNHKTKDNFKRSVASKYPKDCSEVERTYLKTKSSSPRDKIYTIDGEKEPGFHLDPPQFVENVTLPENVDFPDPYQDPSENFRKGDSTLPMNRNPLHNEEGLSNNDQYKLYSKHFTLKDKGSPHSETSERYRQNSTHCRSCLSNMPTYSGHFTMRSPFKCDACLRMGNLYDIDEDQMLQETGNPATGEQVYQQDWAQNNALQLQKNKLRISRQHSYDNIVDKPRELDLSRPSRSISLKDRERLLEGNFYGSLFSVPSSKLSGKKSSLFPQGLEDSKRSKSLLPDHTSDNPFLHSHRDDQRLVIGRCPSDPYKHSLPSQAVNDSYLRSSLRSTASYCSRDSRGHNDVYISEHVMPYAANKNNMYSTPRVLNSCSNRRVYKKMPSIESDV
Sequence of NR1/NR2D (O15399 28-1336, species assumed, other chains not shown): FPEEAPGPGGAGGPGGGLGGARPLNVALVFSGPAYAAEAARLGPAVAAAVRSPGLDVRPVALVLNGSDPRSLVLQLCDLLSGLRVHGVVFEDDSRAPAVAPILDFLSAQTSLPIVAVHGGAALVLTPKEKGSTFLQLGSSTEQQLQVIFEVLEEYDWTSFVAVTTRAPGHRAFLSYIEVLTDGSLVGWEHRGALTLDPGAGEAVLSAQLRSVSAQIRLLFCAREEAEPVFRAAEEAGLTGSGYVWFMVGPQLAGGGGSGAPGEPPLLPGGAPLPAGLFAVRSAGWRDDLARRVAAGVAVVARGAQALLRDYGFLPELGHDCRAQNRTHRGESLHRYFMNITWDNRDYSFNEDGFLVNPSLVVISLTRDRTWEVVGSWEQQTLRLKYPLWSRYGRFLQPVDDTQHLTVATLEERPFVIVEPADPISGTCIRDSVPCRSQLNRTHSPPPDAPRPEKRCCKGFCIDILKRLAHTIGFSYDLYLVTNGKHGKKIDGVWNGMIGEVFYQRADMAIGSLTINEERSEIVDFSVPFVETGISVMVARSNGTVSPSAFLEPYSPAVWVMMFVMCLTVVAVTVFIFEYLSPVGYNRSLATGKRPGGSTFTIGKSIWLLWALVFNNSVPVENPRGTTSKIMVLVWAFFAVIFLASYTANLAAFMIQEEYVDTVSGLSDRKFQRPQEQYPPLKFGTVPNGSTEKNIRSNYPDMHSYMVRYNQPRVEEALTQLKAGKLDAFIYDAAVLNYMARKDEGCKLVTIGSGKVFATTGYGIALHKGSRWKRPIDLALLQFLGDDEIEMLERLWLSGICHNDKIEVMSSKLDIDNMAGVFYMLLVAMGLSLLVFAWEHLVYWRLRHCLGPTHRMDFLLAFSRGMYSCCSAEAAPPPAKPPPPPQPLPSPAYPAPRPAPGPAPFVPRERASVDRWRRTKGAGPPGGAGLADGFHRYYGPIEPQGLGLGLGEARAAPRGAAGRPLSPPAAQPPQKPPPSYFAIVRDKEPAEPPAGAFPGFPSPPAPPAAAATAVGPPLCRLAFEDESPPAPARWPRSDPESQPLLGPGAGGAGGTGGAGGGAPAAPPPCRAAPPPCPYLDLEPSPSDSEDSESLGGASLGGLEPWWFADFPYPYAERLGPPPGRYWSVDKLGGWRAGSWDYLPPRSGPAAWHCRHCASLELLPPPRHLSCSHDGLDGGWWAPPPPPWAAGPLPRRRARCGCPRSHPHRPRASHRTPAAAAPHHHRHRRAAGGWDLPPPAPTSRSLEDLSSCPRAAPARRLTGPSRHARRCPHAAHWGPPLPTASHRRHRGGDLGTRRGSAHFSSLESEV

| Compound | activity at 100 µM (NR1/NR2C; [1]) [%] | activity at 100 µM (NR1/NR2D; [2]) [%] | activity at 100 µM (NR1/NR2B) [%] | activity at 100 µM (NR1/NR2A) [%] | IC50 (NR1/NR2C) [µM] | Emax (NR1/NR2C) [%] | IC50 (NR1/NR2D) [µM] | Emax (NR1/NR2D) [%] | also measured |
| --- | --- | --- | --- | --- | --- | --- | --- | --- | --- |
| Cc1ccc(C(=O)Nc2sc(C)cc2C(=O)O)cc1 [compound 1395] | 95 | 77 | 94 | 92 | – | – | – | – | – |
| COc1ccc(OCC2c3c(cc(OC)cc3OC)CCN2C(=O)c2cccc(Br)c2)cc1 (stereo not shown) [1180-21] | – | – | 72 | 92 | 7 | 265 | 7 | 230 | – |
| CC(C)(C)c1ccc(C(=O)NC2=C(C(=O)O)C3CCCCCC3S2)cc1 (stereo not shown) [compound 1482] | – | – | 116 | 97 | 19 | 127 | 16 | 170 | – |
| COc1ccc(OCC2c3cc(OC)c(OC)cc3CCN2C(=O)N2CCOCC2)cc1 (stereo not shown) [1180-23] | 87 | 78 | 61 | 140 | – | – | – | – | – |
| COc1ccc(OCC2c3cc(OC)c(OC)cc3CCN2C(=O)c2cccc([N+](=O)[O-])c2)cc1 (stereo not shown) [1180-16] | – | – | 123 | 50 | 13 | 267 | 16 | 297 | – |
| CCc1ccc(OCC2c3cc(OC)c(OC)cc3CCN2C(=O)c2ccccc2)cc1 (stereo not shown) [compound 1366] | – | 108 | 97 | 98 | 3 | 121 | – | – | – |
| COc1ccc(C(=O)Nc2sc(C)cc2C(=O)O)cc1 [compound 1420] | 94 | 75 | 97 | 118 | – | – | – | – | – |
| COc1ccc(OCC2c3cc(OC)c(OC)cc3CCN2C(=O)c2cccc(OC)c2)cc1 (stereo not shown) [compound 1392] | – | – | 59 | 104 | 6 | 181 | 12 | 179 | – |
| CC1CCc2c(sc(NC(=O)c3ccc(C(C)(C)C)cc3)c2C(=O)O)C1 (stereo not shown) [compound 1481] | 97 | – | 119 | 113 | – | – | 21 | 124 | – |
| COc1ccc(OCC2c3cc(OC)c(OC)cc3CCN2C(=O)c2ccc(Cl)c(Cl)c2)cc1 (stereo not shown) [1180-10] | – | – | – | – | 3 | 134 | 8 | 172 | – |
| COc1cccc(OCC2c3cc(OC)c(OC)cc3CCN2C(=O)c2ccccc2)c1 (stereo not shown) [1180-7] | 75 | 75 | 92 | 94 | – | – | – | – | – |
| CC(C)(C)c1ccc(C(=O)Nc2scc(-c3ccccc3)c2C(=O)O)cc1 [compound 1406] | – | – | – | 75 | 45 | 341 | 44 | 351 | IC50 (NR1/NR2B): 37 µM |
| CCOC(=O)c1cc(C)sc1NC(=O)c1ccc(C(C)(C)C)cc1 [compound 1400] | 96 | 86 | 89 | 80 | – | – | – | – | – |
| COc1ccc(OCC2c3cc4c(cc3CCN2C(=O)c2cccc(Cl)c2)OCO4)cc1 (stereo not shown) [1180-25] | – | – | 76 | 96 | 12 | 188 | 7 | 162 | – |
| COc1cc2c(cc1OC)CN(C(=O)c1ccccc1)CC2 [1180-28] | 78 | – | 95 | 71 | – | – | – | – | activity at 100 µM (NR1/NR2D; read-out: 2D percent effect at the maximum tested concentration): 80% |
| Cc1sc(NC(=O)c2ccc(C(C)(C)C)cc2)c(C(N)=O)c1C [compound 1433] | – | – | 98 | 97 | 51 | 134 | 34 | 150 | – |
| COc1ccc(OCC2c3ccc(OC)cc3CCN2C(=O)c2cccc(Br)c2)cc1 (stereo not shown) [1180-27] | – | – | 77 | 107 | 1 | 192 | 1 | 168 | – |
| COC(=O)c1ccc(OCC2c3cc(OC)c(OC)cc3CCN2C(=O)c2cccc(Br)c2)cc1 (stereo not shown) [compound 1410] | 94 | 89 | – | – | – | – | – | – | – |
| Cc1ccc(-c2csc(NC(=O)c3ccc(C(C)(C)C)cc3)c2C(=O)O)cc1 [compound 1434] | – | – | – | 121 | 16 | 224 | 18 | 273 | IC50 (NR1/NR2B): 11 µM |
| COc1ccc(OCC2c3cc(OC)c(OC)cc3CCN2C(=O)c2cccc(Br)c2)cc1 (stereo not shown) [compound 1391] | – | – | 74 | 119 | 1 | 195 | 2 | 188 | – |
| Cc1ccnc(NC(=O)c2ccc(C(C)(C)C)cc2)c1 [compound 1398] | 87 | 76 | 102 | 89 | – | – | – | – | – |
| COc1ccc(OCC2c3cc(OC)c(OC)cc3CCN2S(=O)(=O)c2cccc(Cl)c2)cc1 (stereo not shown) [compound 1511] | – | – | – | – | – | – | – | – | activity at 10 µM (NR1/NR2C; at 10 μM, read-out: 2C percent effect at the maximum tested concentration): 99%; activity at 10 µM (NR1/NR2D; read-out: 2D percent effect at the maximum tested concentration, at 10 μM): 96% |
| COc1cc2c(cc1OC)C(COc1ccc(SC)cc1)N(C(=O)c1cccc(Cl)c1)CC2 (stereo not shown) [1180-13] | 97 | 105 | 67 | 112 | – | – | – | – | – |
| NCC(=O)O [glycine, reference compound] | – | – | – | – | – | – | – | – | EC50 (NR1/NR2D): 0.2 µM |
| COc1ccc(OCC2c3ccc(OC)cc3CCN2C(=O)c2cccc(Cl)c2)cc1 (stereo not shown) [1180-26] | – | – | 75 | 93 | 0.8 | 196 | 1 | 185 | – |
| CSC1=NCCN1C(=O)c1ccc(C(C)(C)C)cc1 [compound 1343] | – | – | – | 115 | 139 | 303 | 210 | 480 | IC50 (NR1/NR2B): 138 µM |
| COc1ccc(OCC2c3cc(OC)c(OC)cc3CCN2C(=O)CN2CCOCC2)cc1 (stereo not shown) [1180-24] | 79 | 83 | 96 | 100 | – | – | – | – | – |
| COc1ccc(OC[C@@H]2c3cc(OC)c(OC)cc3CCN2C(=O)c2cccc(Cl)c2)cc1 [1180-15] | – | – | – | – | 2.4 | 330 | 4 | 364 | activity at 30 µM (NR1/NR2A; at 30 μM): 128% |
| COc1cc2c(cc1OC)C(CCc1ccccc1)N(C(=O)c1cccc(F)c1)CC2 (stereo not shown) [1180-1] | – | – | – | 110 | – | – | – | – | activity at 30 µM (NR1/NR2C; at 30 μM, read-out: 2C percent effect at the maximum tested concentration): 96%; activity at 30 µM (NR1/NR2D; read-out: 2D percent effect at the maximum tested concentration, at 30 μM): 90% |
| COc1cc2c(cc1OC)CN(C(=O)c1cccc(Cl)c1)CC2 [1180-29] | 82 | – | 58 | 75 | – | – | – | – | – |

The next lines start with results.

| activity at 100 µM (NR1/NR2C; [1]) [%] | activity at 100 µM (NR1/NR2D; [2]) [%] | activity at 100 µM (NR1/NR2B) [%] | Compound | activity at 100 µM (NR1/NR2A) [%] | IC50 (NR1/NR2C) [µM] | Emax (NR1/NR2C) [%] | IC50 (NR1/NR2D) [µM] | Emax (NR1/NR2D) [%] | also measured |
| --- | --- | --- | --- | --- | --- | --- | --- | --- | --- |
| 76 | 82 | – | COc1ccc(OCC2c3cc(OC)c(OC)cc3CCN2C(=O)c2ccccc2Cl)cc1 (stereo not shown) [compound 1409] | – | – | – | – | – | – |
| 84 | 66 | – | COc1ccc(OCC2c3cc(OC)c(OC)cc3CCN2C(=O)Nc2ccc(Cl)cc2)cc1 (stereo not shown) [compound 1411] | – | – | – | – | – | – |
| 98 | 93 | 75 | COc1ccc(OCC2c3cc(OC)c(OC)cc3CCN2C(=O)c2ccc(OC)cc2)cc1 (stereo not shown) [compound 1364] | – | – | – | – | – | – |
| 105 | 97 | – | COc1ccc(OCC2c3cc(OC)c(OC)cc3CCN2C(=O)c2ccccc2C)cc1 (stereo not shown) [compound 1263] | – | – | – | – | – | – |
| 99 | 93 | – | COc1ccc(OCC2c3cc(OC)c(OC)cc3CCN2C(=S)Nc2cccc(F)c2)cc1 (stereo not shown) [compound 1414] | – | – | – | – | – | – |
| 102 | 74 | – | COc1ccc(OCC2c3cc(OC)c(OC)cc3CCN2C(=S)Nc2cccc(C)c2)cc1 (stereo not shown) [compound 1413] | – | – | – | – | – | – |
| 93 | 79 | – | COc1ccc(OCC2c3cc(OC)c(OC)cc3CCN2C(=S)Nc2ccccc2)cc1 (stereo not shown) [compound 1412] | – | – | – | – | – | – |
| 96 | 87 | – | COc1ccc(OCC2c3cc(OC)c(OC)cc3CCN2C(=S)Nc2cccc(Br)c2)cc1 (stereo not shown) [compound 1416] | – | – | – | – | – | – |
| 99 | 87 | – | COc1ccc(OCC2c3cc(OC)c(OC)cc3CCN2C(=S)Nc2cccc(Cl)c2)cc1 (stereo not shown) [compound 1415] | – | – | – | – | – | – |
| 95 | 88 | – | COc1ccc(OCC2c3cc(OC)c(OC)cc3CCN2C(=O)c2ccc3c(c2)OCO3)cc1 (stereo not shown) [compound 1408] | – | – | – | – | – | – |
| 104 | 93 | – | C=C(OC)c1ccc(OCC2c3cc(OC)c(OC)cc3CCN2C(=O)c2ccc(OC)cc2)cc1 (stereo not shown) [compound 1367] | – | – | – | – | – | – |
| 90 | 87 | 87 | COc1ccc(OCC2c3cc(OC)c(OC)cc3CCN2C(=O)c2ccncc2)cc1 (stereo not shown) [compound 1510] | – | – | – | – | – | – |
| 86 | 88 | – | COc1ccc(OCC2c3cc(OC)c(OC)cc3CCN2C(=O)Nc2ccccc2)cc1 (stereo not shown) [compound 1407] | – | – | – | – | – | – |
